We go through two substances from patent US9249468B2, “Methods and materials related to ovarian cancer” (The Ohio State University, priority 2011, dated 2016).

Values joined by “and” are separate entries in the source; they are usually repeats but may differ in a detail not shown here. Equal values may be shown once. “Also recorded” adds a separate entry of the source.

For series [1], the system named is SKOV-3 cells. Description: In vitro sensitivity to CBDCA and Tax of miR-overexpressing cells (MTS assay). It is filed as cell-based. To be noted: overexpression of the miR in SK-OV3 cells; MTS assay 4 days later. As for the experimental part:
(§1) After drugs removal, cells were washed in PBS and incubated in the presence of serum for additionally 4 days. Cells viability was assessed using MTS assay (SIGMA) following manufacturer instructions. The reported IC50 values represent the mean of at least 3 independent experiments. For the evaluation of miR-484 effects on in vitro drug sensitivity parental, scramble and miR-484 expressing cells were plated in 96 wells plates (1000 cells/well) and treated with the indicated doses of CBDCA and TAX. Viability was evaluated after 4 days as described above.

The test system of series [2] is MDAH-2774 cells. The description is as above. Conditions: overexpression of the miR in MDAH-2274 cells; MTS assay 4 days later. The series is classed as cell-based. As to the method:
as §1
On the technique in general: Tetrazolium assays rely on reduction of a dye to a coloured formazan, in cell work by metabolically active cells.

The subject of another series is HGS. Nature of the series: Luciferase miRNA target reporter assay and western blot. It is filed as cell-based, human. To be noted: luciferase and western blot analyses. As to the method: (§2) For overexpression of miR-296 and miR-484, 100 nM of pre-miR-296, pre-miR-484 and pre-negative control-2 (Ambion) was transfected into HEK293 and HUVE cells using Lipofectamine 2000 (Invitrogen). After 24 hr, cells were harvested and lysed in RIPA buffer containing protease inhibitor cocktail (Roche Diagnostic). Protein concentrations of total cell lysates were measured using a Bradford Protein Assay Dye Reagent Concentrate (Bio-Rad), and 35 μg of cell lysates was resolved on SDS-PAGE gels (Bio-Rad) and transferred to nitrocellulose followed by visualization with ECL detection reagents (Denville Scientific). The following primary antibodies were used: mouse monoclonal anti-Hgs (1:1000, Enzo Life Science), rabbit polyclonal anti-VEGF Receptor 2 (1:1000, Cell Signaling Technology), mouse monoclonal anti-VEGF-B (1:200, Santa Cruz Biotechnology), mouse monoclonal anti-a-Tubulin (1:2000, Sigma).
(§3) The 3′ UTR of the human HGS, and VEGFB genes were PCR amplified using the following primers:
(§4) and inserted into pGL3 control vector (Promega) by using Xba1 site immediately downstream from the stop codon of firefly luciferase, giving rise to the p3′UTR-HGS, and p3′UTR-VEGFB plasmids. These constructs were used to generate the p3′-UTRmut-HGS primers: […]
In general terms: Reporter assays use an easily measured gene product as a stand-in for the process of interest.

In series [3] the test system is HUVEC cells. Nature of the series: Co-culture of HUVEC with miR over-expressing ovarian cancer cells: miR transfer. It is filed as cell-based. As to the method:
(§5) Total RNA was isolated with Trizol (Invitrogen) from cells and with High Pure miRNA Isolation Kit (Roche) in accordance with manufacturer's instructions for liquid samples. Mature miRs were assessed by the single-tube TaqMan MicroRNA Assay. miR expression was normalized in cells to RNU44 and RNU48. All retrotranscriptase (RT) reactions, including no-template controls and RT minus controls, were run in a GeneAmp PCR 9600 Thermocycler (Applied Biosystems).
(§6) Each sample was tested in triplicate unless otherwise specified. MicroRNAs from medium samples were isolated. After DNase treatment (Ambion), RNA concentrations were determined with a NanoDrop (Thermo Scientific). In serum samples were normalized to U6snRNA (Applied Biosystems), as indicated. Since U6 is inconsistent, the expression levels of target miRNAs were directly normalized to total RNA (the inventors tested before the absence of miR-296-5p and miR-484 in not conditioned medium).

Series [4] deals with ovarian cancer derived cell lines. Description: miR expression in stably transfected ovarian cancer cell lines and their conditioned medium (real time PCR). The series is classed as cell-based. To be noted: for miR in the CM of stably transfected cells: conditioned medium; for increase of miR expression over controls after stable transfection: miR-EGFP stable transfection in ovarian cancer cells. As to the method:
as §5, §6
Lentiviruses expressing miR-484 were produced in 293FT cell lines (Invitrogen), by calcium phosphate transfection. To this purpose, the System Biosciences (SBI, USA) miR Precursor Constructs were used, containing dual expression of the specific miR and the copGFP fluorescent marker, for simple identification and monitoring of cells positive for transfection and transduction. Conditioned media containing viruses was harvested 72 hours after transfection, and used to transduce epithelial ovarian cancer cell lines (EOC). In particular, SKOV-3 and MDAH-2774 were transduced with viruses expressing either GFP alone (called hereafter empty vector) or GFP and precursor of miR-484, and then monitored for their fluorescence expression.
In general terms: In qPCR the cycle at which signal appears reflects the starting amount.

The test system of series [5] is VEGFR2. Description: VEGFR2 expression in HUVEC co-cultured with miR over-expressing ovarian cancer cells. It is filed as cell-based. To be noted: HUVEC co-cultured 24 hours with miR over-expressing cells vs control.
The subject of series [6] is SKOV-3 cells. Description: In vivo growth and susceptibility to Carboplatin+Taxol of xenografts expressing miR-484 (EGFP imaging). Further details: species or system nude mice. To be noted: SK-OV3 cells expressing miR-484, EGFP fluorescence imaging. As for the experimental part:
(§7) Two approaches were used to evaluate the effects of miR-484 expression on in vivo chemosensitivity: 1) MDAH-2774 cells scrambled-miR (right flank) or miR-484 (left flank) and SKOV-3 scrambled-miR (right flank) or miR-484 (left flank) were injected and treated with intraperitoneal administration of Carboplatin (15 mg/kg) plus Taxol (5 mg/kg) twice a week, for 3 weeks. Tumor growth was follow by caliper measurement and/or by GFP visualization using the Ivis Lumina, Caliper Lifesciences. 2) Direct intratumoral delivery of lentiviruses expressing scrambled-miR (right flank) or miR484 (left flank) associated with carboplatin (15 mg/kg) plus taxol (5 mg/kg) intraperitoneal treatment.
(§8) Same was carried out with SKOV-3, except that 2.2×10^6 cells have been injected. When tumor masses became visible treatment with CBDCA (15 mg/kg) and Tax (5 mg/kg) was started. Drugs were delivered diluted in 200 ul of PBS and intraperitoneally injected twice a week, for 4 weeks. Tumor masses were measured with a caliper twice a week, for 4 weeks. Moreover, exploiting the expression of GFP fluorescent marker by the ovarian cancer cells utilized, mice have been anesthetized and tumor masses imaged by the Ivis Lumina, Caliper Lifesciences, once a week, for 4 weeks. Mice were then sacrificed and tumor masses excised and included in OCT for further analyses.

Series [7] concerns MDAH-2774 cells. Nature of the series: Intratumoral delivery of lentivirus expressing miR-484 with CBDCA+Tax treatment. It is filed as in vivo, nude mice. Conditions: CBDCA+Tax biweekly for 3 weeks, tumor growth after 21 days. As for the experimental part: as §7
Series [8] concerns VEGFR2. Description: Luciferase and western blot after miR transfection in HUVEC cells. It is filed as cell-based. Conditions: luciferase and western blot analyses. As to the method:
as §2

For series [9], the system named is VEGFB. Description: Luciferase miRNA target reporter assay and western blot. Conditions: luciferase and western blot analyses. It is filed as cell-based, human. As to the method:
as §2, §3, §4

Series [10] concerns VEGFB. Nature of the series: Western blot for VEGFB in cell lines stably transduced with miR-484. It is filed as cell-based. Conditions: MDAH-2774 or SKOV-3 stably transduced with miR-484 vs scr-vector; western blot (data not shown).
The test system of series [11] is HUVEC cells. Description: Tube formation assay on HUVEC cells with conditioned media from miR-484 expressing ovarian carcinoma cells. To be noted: CM from MDAH-2774 or SK-OV3 overexpressing miR-484. It is filed as cell-based. As for the experimental part: Wells from a 48-well plate were filled with […] of matrigel (BD, non growth factor reduced 8-10 ug/ul) and let solidify at 37° C. for 1 hour. HUVEC cells (ATCC, 1×10^5) resuspended in […] of medium were then layered onto the matrigel layer and monitored over the time for the formation of tube-like structures. Time-lapse video microscopy (Leica) was used to create a movie of this process, collecting images every 5 minutes for up to 20 hours. Media used to resuspend endothelial cells were 1—complete medium for endothelial cells, used as positive control, 2—Serum reduced medium (2%), used as negative control, 3—conditioned medium (plus 2% serum) from […] or MDAH-2774 transduced with scrambled-miR or miR-484.

Series [12] concerns MDAH-2774 cells. Nature of the series: In vivo growth and susceptibility to Carboplatin+Taxol of xenografts expressing miR-484 (caliper). More on the design: species or system nude mice. As for the experimental part: as §7
Athymic female nude mice (8/group) were subcutaneously injected on both dorsal flanks with 100 ul of PBS containing 1.5×10^6 MDAH-2774 cells scrambled-miR (right flank) or miR-484 (left flank).
as §8

Another series concerns SK-OV3 xenograft tumors. Nature of the series: Vascular density (CD34, Chalkley eyepiece method) in xenograft tumors. The series is classed as in vivo, mice. To be noted: SK-OV3 xenografts transduced with miR-484; 7 tumors. As for the experimental part:
(§9) Tumor sections (2 μm thick) were cut and for formalin fixed paraffin embedded sample deparaffinization was achieved trough graded alcohols. Primary antibody against CD34 was applied following manufacturer's instruction. Vascular density (CD34+) was assessed using the Chalkley eyepiece method. Whole tumor sections were scanned at low magnification under a conference microscope by two observers. Three areas with the highest vascular density (vascular hot-spots) were identified. At high magnification (×400) a 25-point Chalkley-Eyepiece graticule was applied to each hot-spot and oriented to permit the maximum number of points to hit on or within blood vessels. The mean value of the three counts represents the vascular density of the tumor.

The test system of series [13] is MDAH-2774 xenograft tumors. The description is as above. It is filed as in vivo, mice. Conditions: MDAH-2774 xenografts transduced with miR-484; 7 tumors. As for the experimental part: as §9
Where [14] appears, read: CBDCA and Tax treatment, 7 mice, miR-484 expressing tumors.

Consider “miR-296: microRNA miR-296 (SEQ ID NO: 9), over-expressed via pre-miR-296 transfection or stable miR-296-EGFP transfection (AGGGCCCCCCCUCAAUCCUGU; listed as RNA, chemistry not given here; listed as Homo sapiens)”, for which, in the series with SKOV-3 cells [1], the “in vitro sensitivity to CBDCA and Tax” value is listed as “did not significantly affect”. Further, in the series with MDAH-2774 cells [2], the “in vitro sensitivity to CBDCA and Tax” value is reported as “did not significantly affect”. The “endogenous levels of HGS” value in the series on HGS was “modulated”. Moreover, the “time within which secreted miR enters HUVEC cells” value with HUVEC cells [3] is not above 24 h. Further, in series [4], the “miR in the CM of stably transfected cells” value is “found” and the “increase of miR expression over controls after stable transfection” value is recorded as not below 2 fold. For the same substance, the “expression of VEGFR2 on endothelial cells” value in the series on VEGFR2 [5] is on record as “significantly increase”.

For the substance “miR-484: microRNA hsa-miR-484 (SEQ ID NO: 11), over-expressed via lentiviral miR precursor construct or pre-miR-484 transfection (UCAGGCUCAGUCCCCUCCCGAU; listed as RNA, chemistry not fully specified; listed as Homo sapiens)”, the sensitivity to treatment result in the series on SKOV-3 cells [6] (CBDCA+Tax) was “significantly increased”. Further, the “growth of the primary tumor” value in the series on SKOV-3 cells [6] was “did not affect”. Also, the “in vitro sensitivity to CBDCA and Tax” value with SKOV-3 cells [1] is reported as “did not significantly affect”. For the same substance, in the series with MDAH-2774 cells [2], the “in vitro sensitivity to CBDCA and Tax” value is listed as “did not significantly affect”. Moreover, the “cases in which drug sensitivity increased” value in the series on MDAH-2774 cells [7] is 6/6. The “endogenous levels of VEGFR2” value in the series with VEGFR2 [8] is “modulated”. Further, the “endogenous levels of VEGFB” value with VEGFB [9] is on record as “modulated”. Besides, in the series on HUVEC cells [3], the “time within which secreted miR enters HUVEC cells” value was not above 24 h. Besides, the VEGFB expression result in the series on VEGFB [10] is “down-regulated”. In the series on HUVEC cells [11] (6 hours on 3D matrigel), the “formation of tube like structures by HUVEC” value was “impaired”. The “formation of tube like structures by HUVEC” value with HUVEC cells [11] (20 hrs) was “abolished; also recorded: reduces the ability of HUVEC to properly form and maintain tube-like structures”. For the same substance, in the series with MDAH-2774 cells [12] (15 days after subcutaneous inoculation, before treatment), the “mice in which tumor volume formed by miR-expressing cells was larger than control EGFP-expressing cells” value is on record as 6/8. In the series with MDAH-2774 cells [12] (setting [14]), the “increase of tumor size with respect to day 0 at the end of the treatment” value amounted to 1.3 fold and the “range of tumor size increase with respect to day 0” value is reported as 0.8-1.8 fold. In series [4], the “miR in the CM of stably transfected cells” value is on record as “increased” and the “increase of miR expression over controls after stable transfection” value is not below 2 fold. The “expression of VEGFR2 on endothelial cells” value with VEGFR2 [5] is “significantly decrease”. For the same substance, in the series with SK-OV3 xenograft tumors, the mean microvessel density is 9±5.5 and 9; the “range of microvessel density” value was 1-18. Also, in [13], the mean microvessel density is 10±6.2 and 10; the “range of microvessel density” value was 4-22.
